This is an account of results in ChEMBL document CHEMBL1687771 (Antimicrob Agents Chemother, 2010).

The structures appear in SMILES notation. ≈ marks a conversion by molar mass, not a printed value. Calls of active or inactive are those of the source. The rule behind the calls is not given here.

For assay [1], the system named is Bacillus anthracis. Description: Antimicrobial activity against Bacillus anthracis Ames infected in BALB/c mouse anthrax spore inhalation infection model assessed as decrease in tissue bacterial burden at 50 mg/kg, sc bid for 14 days administered 24 hrs post bacterial challenge measured 43 days post bacterial challenge. The format is functional, organism-based. More on the design: dose 50 mg/kg.

For assay [2], the system named is Bacillus anthracis. In words: Antimicrobial activity against Bacillus anthracis Ames by CLSI broth microdilution method. The format is functional. A general note: Broth dilution looks for growth in wells or tubes with falling amounts of substance.
The subject of assay [3] is Bacillus anthracis. Description: Antimicrobial activity against Bacillus anthracis Ames infected in BALB/c mouse anthrax spore inhalation infection model assessed as decrease in tissue bacterial burden at 50 mg/kg, sc bid for 21 days administered 24 hrs post bacterial challenge measured 43 days post bacterial challenge. The format is functional, organism-based. Details: dose 50 mg/kg.

Assay [4] relates to Mus musculus. In words: AUC in Bacillus anthracis Ames infected in BALB/c mouse anthrax spore inhalation infection model at 50 mg/kg, sc bid for 14 days administered 24 hrs post bacterial challenge. The format is functional, organism-based. Details: dose 50 mg/kg.
Assay [5] deals with Mus musculus. Description: AUC at 24 hrs in Bacillus anthracis Ames infected in BALB/c mouse anthrax spore inhalation infection model at 50 mg/kg, sc bid for 14 days administered 24 hrs post bacterial challenge. The format is functional, organism-based. More on the design: dose 50 mg/kg.

The MIC50 is an inhibitory concentration at the 50% level, which refers to growth in some studies and to a panel of isolates in others. Higher therefore signals weaker potency. Broadly, the MIC90 is the lowest concentration that inhibits either 90% of growth or 90% of the strains tested, depending on the study. Low readings indicate greater potency, high ones weaker potency. For `CCCCCCCCCC(=O)N[C@@H](Cc1c[nH]c2ccccc12)C(=O)N[C@H](CC(N)=O)C(=O)N[C@@H](CC(=O)O)C(=O)N[C@@H]1C(=O)NCC(=O)N[C@@H](CCCN)C(=O)N[C@@H](CC(=O)O)C(=O)N[C@H](C)C(=O)N[C@@H](CC(=O)O)C(=O)NCC(=O)N[C@H](CO)C(=O)N[C@@H]([C@H](C)CC(=O)O)C(=O)N[C@@H](CC(=O)c2ccccc2N)C(=O)O[C@@H]1C`, the outcome with Bacillus anthracis [1] and in the assay on Bacillus anthracis [3] was Active. The same molecule returned an MIC50 against Bacillus anthracis [2] of 2 µg/mL (≈ 1.23 µM). In the assay with Bacillus anthracis [2], this molecule yielded an MIC90 of 4 µg/mL (≈ 2.47 µM). Further, the AUC with Mus musculus [4] is above 375000 ng·h/mL; in the assay on Mus musculus [5], 750000 ng·h/mL.
